This test deals with T1, Full-length USP19 (Homo sapiens, UniProt O94966).
T1 construct: Full-length USP19 was purchased from Boston Biochem (E-576); purchased Boston Biochem E-576
T1 sequence (O94966 1-1318): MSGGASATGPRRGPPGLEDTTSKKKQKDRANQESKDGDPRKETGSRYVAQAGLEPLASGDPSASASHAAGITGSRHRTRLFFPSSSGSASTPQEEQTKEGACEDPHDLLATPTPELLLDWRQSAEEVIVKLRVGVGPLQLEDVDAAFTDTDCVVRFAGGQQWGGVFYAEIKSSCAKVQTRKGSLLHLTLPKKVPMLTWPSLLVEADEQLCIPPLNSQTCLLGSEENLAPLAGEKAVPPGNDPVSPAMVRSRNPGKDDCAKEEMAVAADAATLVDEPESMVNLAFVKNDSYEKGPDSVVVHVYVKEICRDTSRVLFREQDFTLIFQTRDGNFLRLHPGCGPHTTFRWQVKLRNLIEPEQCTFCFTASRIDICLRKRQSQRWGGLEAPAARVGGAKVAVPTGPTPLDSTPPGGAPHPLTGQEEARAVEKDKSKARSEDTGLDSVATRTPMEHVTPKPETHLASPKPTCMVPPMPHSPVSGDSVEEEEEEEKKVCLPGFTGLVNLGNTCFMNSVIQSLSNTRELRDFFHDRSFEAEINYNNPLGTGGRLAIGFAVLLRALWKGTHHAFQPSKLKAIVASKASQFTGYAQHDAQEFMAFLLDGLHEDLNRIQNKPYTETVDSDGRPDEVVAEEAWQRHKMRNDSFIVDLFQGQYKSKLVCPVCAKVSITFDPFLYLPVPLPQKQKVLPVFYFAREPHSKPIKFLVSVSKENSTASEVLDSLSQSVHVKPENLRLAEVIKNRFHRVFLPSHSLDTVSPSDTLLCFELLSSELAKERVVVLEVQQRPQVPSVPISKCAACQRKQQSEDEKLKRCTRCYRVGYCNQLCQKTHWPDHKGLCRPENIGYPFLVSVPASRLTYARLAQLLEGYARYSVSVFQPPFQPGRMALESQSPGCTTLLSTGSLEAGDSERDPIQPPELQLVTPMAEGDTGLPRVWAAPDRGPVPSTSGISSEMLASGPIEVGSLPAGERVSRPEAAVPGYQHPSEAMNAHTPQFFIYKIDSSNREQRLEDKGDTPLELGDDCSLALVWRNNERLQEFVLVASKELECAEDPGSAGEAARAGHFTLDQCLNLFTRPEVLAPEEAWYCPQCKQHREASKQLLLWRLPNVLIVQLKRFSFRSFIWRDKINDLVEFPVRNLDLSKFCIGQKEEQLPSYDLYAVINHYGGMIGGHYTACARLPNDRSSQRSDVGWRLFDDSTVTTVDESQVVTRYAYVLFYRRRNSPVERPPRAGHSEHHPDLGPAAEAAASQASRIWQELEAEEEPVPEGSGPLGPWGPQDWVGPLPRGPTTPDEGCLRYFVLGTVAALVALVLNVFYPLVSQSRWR
The experiment in a line: USP19 fluorescence polarisation (FP) homogeneous assay with Ubiquitin-Lys-TAMRA substrate. The class given is biochemical. Particulars: 2.5 nM USP19, 30 min pre-incubation, average of at least two duplicate experiments. Put shortly:
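Full-length USP19 preincubated 30 min at RT with inhibitor (200 μM to 2 μM series, 8–18 points) before adding 500 nM Ubiquitin-Lys-TAMRA substrate.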

For orientation: IC50 means the concentration at which inhibition is half-maximal.

Molecules are shown by their SMILES.

In the case of `C[C@H](CC1CCCCC1)C(=O)N1CCC(O)(Cn2cc(C(=O)N3CCNCC3)ncc2=O)C2(CCCC2)C1` (stereo partly drawn) [Example 11, 1-((7-((R)-3-Cyclohexyl-2-methylpropanoyl)-10-hydroxy-7-azaspiro[4.5]decan-10-yl)methyl)-5-(piperazine-1-carbonyl)pyrazin-2(1H)-one], the IC50 was under 500 nM.

Turning to `O=C(N1CCC(O)(Cn2cnc(-c3ccccc3)cc2=O)CC1)N1CCOC[C@H]1c1ccccc1` [Example 295, (R)-3-((4-Hydroxy-1-(3-phenylmorpholine-4-carbonyl)piperidin-4-yl)methyl)-6-phenylpyrimidin-4(3H)-one], the IC50 was in the range of 500 to 5000 nM.

Regarding `O=C(N1CC[C@@](O)(Cn2cnc(C3CC3)cc2=O)C2(CCCC2)C1)N1CCNC[C@H]1c1cccc(F)c1` [Example 377, 6-Cyclopropyl-3-(((S)-7-((R)-2-(3-fluoro-phenyl)piperazine-1-carbonyl)-10-hydroxy-7-aza-spiro[4.5]decan-10-yl)methyl)pyrimidin-4(3H)-one], the IC50 is under 500 nM.

Consider `O=C(N1CC[C@@](O)(Cn2cnc(N3CCC(F)CC3)cc2=O)C2(CCCC2)C1)N1CCNC[C@H]1c1ccccc1` [Example 361, 6-(4-Fluoropiperidin-1-yl)-3-(((S)-10-hydroxy-7-((R)-2-phenylpiperazine-1-carbonyl)-7-aza-spiro[4.5]decan-10-yl)methyl)pyrimidin-4(3H)-one], for which the IC50 was under 500 nM.

Consider `O=C(N1CC[C@@](O)(Cn2cnc(N3CC4CC4C3)cc2=O)C2(CCCC2)C1)N1CCNC[C@H]1c1cc(F)ccc1F` (stereo partly drawn) [Example 389, 6-(3-Aza-bicyclo[3.1.0]hexan-3-yl)-3-(((S)-7-((R)-2-(2,5-difluoro-phenyl)piperazine-1-carbonyl)-10-hydroxy-7-aza-spiro[4.5]decan-10-yl)methyl)pyrimidin-4(3H)-one], for which the IC50 was under 500 nM.

As to `O=C(N1CCC(O)(Cn2ccncc2=O)C2(CCCC2)C1)N1CCNC[C@H]1c1ccccc1` (stereo partly drawn) [Example 91, 1-((10-Hydroxy-7-((R)-2-phenylpiperazine-1-carbonyl)-7-azaspiro[4.5]decan-10-yl)methyl)pyrazin-2(1H)-one], the IC50 was in the range of 500 to 5000 nM.

For `C[C@H](CC1CCCCC1)C(=O)N1CCC(O)(CN2Cc3ncccc3C2=O)C2(CCCC2)C1` (stereo partly drawn) [Example 103, 6-((7-((R)-3-Cyclohexyl-2-methylpropanoyl)-10-hydroxy-7-azaspiro[4.5]decan-10-yl)methyl)-6,7-dihydro-5H-pyrrolo[3,4-b]pyridin-5-one], the IC50 is 500 to 5000 nM.

Consider `N#Cc1ccc(CNC(=O)N2CC[C@@](O)(Cn3cnc(-c4ccccc4)cc3=O)C3(CCCC3)C2)cc1` [Example 215, (S)—N-(4-Cyanobenzyl)-10-hydroxy-10-((6-oxo-4-phenylpyrimidin-1(6H)-yl)methyl)-7-azaspiro[4.5]decane-7-carboxamide], for which the IC50 lay within 50000 to 250000 nM.

`COc1ccc(-c2cc(=O)n(C[C@]3(O)CCN(C(=O)N4CCNC[C@H]4c4ccccc4)CC34CCCC4)cn2)cc1` [Example 339, 3-(((S)-10-Hydroxy-7-((R)-2-phenylpiperazine-1-carbonyl)-7-azaspiro[4.5]decan-10-yl)methyl)-6-(4-methoxyphenyl) pyrimidin-4(3H)-one]: the IC50 is under 500 nM.

As to `O=C(N1CC[C@@](O)(Cn2cnc(-c3ccccc3F)cc2=O)C2(CCCC2)C1)N1CCNC[C@H]1c1ccccc1` [Example 314, 6-(2-Fluorophenyl)-3-(((S)-10-hydroxy-7-((R)-2-phenylpiperazine-1-carbonyl)-7-azaspiro[4.5]decan-10-yl)methyl)pyrimidin-4(3H)-one], the IC50 is under 500 nM.

Consider `O=C(N1CCC(O)(Cn2cnc(-c3ccccc3)cc2=O)C2(CCCCC2)C1)N1CCOC[C@H]1c1ccccc1` (stereo partly drawn) [Example 296, 3-((5-Hydroxy-2-((R)-3-phenylmorpholine-4-carbonyl)-2-azaspiro[5.5]undecan-5-yl)methyl)-6-phenylpyrimidin-4(3H)-one], for which the IC50 was under 500 nM.

In the case of `C[C@H](CC(F)(F)F)C(=O)N1CCC(O)(Cn2ccc3ccc(F)cc3c2=O)C2(CCCC2)C1` (stereo partly drawn) [Example 135, 7-Fluoro-2-((10-hydroxy-7-((R)-4,4,4-trifluroo-2-methylbutanoyl)-7-azaspiro[4.5]decan-10-yl)methyl)isoquinolin-1(2H)-one], the IC50 lay within 5000 to 50000 nM.

Regarding `O=C(N1CC[C@@](O)(Cn2cnc(-c3ccccc3)cc2=O)C2(CCCC2)C1)N1CCNC[C@H]1c1cc(F)ccc1F` [Example 373, 3-(((S)-7-((R)-2-(2,5-Difluorophenyl)piper-azine-1-carbonyl)-10-hydroxy-7-azaspiro[4.5]decan-10-yl)methyl)-6-phenylpyrimidin-4(3H)-one], the IC50 is under 500 nM.

On to `O=C(N1CC[C@@](O)(Cn2cnc(-c3cccc(F)c3)cc2=O)C2(CCCC2)C1)N1CCNC[C@H]1c1cccc(F)c1` [Example 375, 6-(3-Fluorophenyl)-3-(((S)-7-((R)-2-(3-fluorophenyl)pipera-zine-1-carbonyl)-10-hydroxy-7-aza-spiro[4.5]decan-10-yl)methyl)pyrimidin-4(3H)-one], for which the IC50 is under 500 nM.

As to `C[C@H](CC1CCCCC1)C(=O)N1CCC(O)(Cn2ccncc2=O)C(C)(C)C1` (stereo partly drawn) [Example 1, 1-((1-((R)-3-Cyclohexyl-2-methylpropanoyl)-4-hydroxy-3,3-dimethylpiperidin-4-yl)methyl)pyrazin-2(1H)-one], the IC50 lay within 500 to 5000 nM.

As to `CC(CC1CCCCC1)C(=O)N1CCC(O)(CN2CC3(CCCCC3)CC2=O)C(C)(C)C1` (centres unmarked) [Example 46, 2-((1-(3-Cyclohexyl-2-methylpropanoyl)-4-hydroxy-3,3-dimethylpiperidin-4-yl)methyl)-2-azaspiro[4.5]decan-3-one], the IC50 is 50000 to 250000 nM.

For `COc1ccc2c(=O)n(CC3(O)CCN(C(=O)[C@H](C)CC4CCCCC4)CC34CCCC4)cnc2c1` (stereo partly drawn) [Example 139, 3-((7-((R)-3-Cyclohexyl-2-methylpropanoyl)-10-hydroxy-7-azaspiro[4.5]decan-10-yl)methyl)-7-methoxyquinazolin-4(3H)-one], the IC50 lay within 500 to 5000 nM.

Regarding `Cn1cc(-c2cc(=O)n(C[C@]3(O)CCN(C(=O)N4CCNC[C@H]4c4ccccc4)CC34CCCC4)cn2)cn1` [Example 291, 3-(((S)-10-Hydroxy-7-((R)-2-phenylpiperazine-1-carbonyl)-7-azaspiro[4.5]decan-10-yl)methyl)-6-(1-methyl-1H-pyrazol-4-yl)pyrimidin-4(3H)-one], the IC50 is under 500 nM.

For `C[C@H](CC1CCCCC1)C(=O)N1CCC(O)(Cn2cnc3c(F)cccc3c2=O)C2(CCCC2)C1` (stereo partly drawn) [Example 131, 3-((7-((R)-3-Cyclohexyl-2-methylpropanoyl)-10-hydroxy-7-azaspiro[4.5]decan-10-yl)methyl)-8-fluoroquinazolin-4(3H)-one], the IC50 lay in the range of 500 to 5000 nM.

As for `C[C@H](CC1CCCCC1)C(=O)N1CCC(O)(CN2C(=O)C(=O)c3ccccc32)C2(CCCC2)C1` (stereo partly drawn) [Example 36, 1-((7-((R)-3-Cyclohexyl-2-methylpropanoyl)-10-hydroxy-7-azaspiro[4.5]decan-10-yl)methyl)indoline-2,3-dione], the IC50 fell in the range of 5000 to 50000 nM.

In the case of `C[C@H](CC1CCCCC1)C(=O)N1CCC(O)(CN2C(=O)COc3c(N)cccc32)C2(CCCC2)C1` (stereo partly drawn) [Example 37, 8-Amino-4-((7-((R)-3-cyclohexyl-2-methylpropanoyl)-10-hydroxy-7-azaspiro[4.5]decan-10-yl)methyl)-2H-benzo[b][1,4]oxazin-3(4H)-one], the IC50 was in the range of 500 to 5000 nM.

`O=C(N1CCC(O)(Cn2cnc(-c3ccccc3)cc2=O)C2(CCCC2)C1)N1CCC[C@H]1Cc1cccs1` (stereo partly drawn) [Example 267, 3-((10-Hydroxy-7-((S)-2-(thiophen-2-ylmethyl)pyrrolidine-1-carbonyl)-7-azaspiro[4.5]decan-10-yl)methyl)-6-phenylpyrimidin-4(3H)-one]: the half-inhibitory concentration (IC50) lay within 50000 to 250000 nM.

For the molecule `C[C@H](CC(F)(F)F)C(=O)N1CCC(O)(CN2CCN(c3ccccn3)CC2=O)C2(CCCC2)C1` (stereo partly drawn) [Example 113, 1-((10-Hydroxy-7-((R)-4,4,4-trifluoro-2-methylbutanoyl)-7-azaspiro[4.5]decan-10-yl)methyl)-4-(pyridin-2-yl)piperazin-2-one], the IC50 was under 500 nM.

Source of the values: patent US20220033397A1, “PHARMACEUTICAL COMPOUNDS AND THEIR USE AS INHIBITORS OF UBIQUITIN SPECIFIC PROTEASE 19 (USP19)” (ALMAC DISCOVERY LIMITED, priority 2018, published 2022).
